Calls of active or inactive are those of the source. No cut-off for these calls is given here.
Columns and labels:
Egl nine homolog 1 = Egl nine homolog 1 (Homo sapiens, UniProt Q9GZT9); assay: Binding affinity to […] PHD2 (181 to 426 residues) (unknown origin) by fluorescence polarization assay
[1] = Metabolic stability in rat liver microsomes assessed as clearance at 1 uM preincubated for 5 mins followed by NADPH addition and measured upto 60 mins by LC-MS/MS analysis; format: ADME, Microsome; details: time < 65 min, read-out: CLH
Mus musculus = assay: Upregulation of reticulocytes in C57BL/6J mouse at 10 mg/kg, po administered once daily for 3 days; format: functional, organism-based; details: time 3.0 day

Chain of Egl nine homolog 1 (Q9GZT9 whole entry, the tested form may be a part): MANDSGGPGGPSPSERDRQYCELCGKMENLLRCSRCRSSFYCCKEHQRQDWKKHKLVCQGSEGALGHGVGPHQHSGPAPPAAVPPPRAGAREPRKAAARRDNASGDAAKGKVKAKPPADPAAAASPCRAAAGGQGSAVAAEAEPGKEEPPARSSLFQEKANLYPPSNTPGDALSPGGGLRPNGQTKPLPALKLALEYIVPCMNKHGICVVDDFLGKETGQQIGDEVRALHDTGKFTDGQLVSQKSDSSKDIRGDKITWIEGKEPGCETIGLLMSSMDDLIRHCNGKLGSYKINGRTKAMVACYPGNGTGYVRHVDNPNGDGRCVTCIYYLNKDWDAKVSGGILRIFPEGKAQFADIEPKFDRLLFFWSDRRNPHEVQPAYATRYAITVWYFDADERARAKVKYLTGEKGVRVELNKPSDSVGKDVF

In the case of `O=C(O)CNC(=O)c1ncc(C2CCN(C(=O)CNc3ccccc3)CC2)cc1O`, the IC50 (Egl nine homolog 1) is reported as 56.8 nM.
With `O=C(O)CNC(=O)c1ncc(C2CCN(C(=O)CNc3ccc(C(F)(F)F)cc3)CC2)cc1O` the IC50 (Egl nine homolog 1) was 43.4 nM and the microsomal CLint at 1 µM [1] was 5.6 µL/min/mg.
For `O=C(O)CNC(=O)c1ncc(C2CCN(C(=O)c3ccc(C(F)(F)F)cc3)CC2)cc1O`, the IC50 (Egl nine homolog 1) was 44.3 nM, the microsomal CLint at 1 µM [1] was 3.7 µL/min/mg and the Activity (Mus musculus) was “Active”.
Work on `O=C(O)CNC(=O)c1ncc(C2CCN(C(=O)c3cccc(F)c3)CC2)cc1O` yielded an IC50 (Egl nine homolog 1) of 77.1 nM.
`Cc1ccc(NCC(=O)N2CCC(c3cnc(C(=O)NCC(=O)O)c(O)c3)CC2)cc1` gave an IC50 (Egl nine homolog 1) of 64.5 nM.
With `O=C(O)CNC(=O)c1ncc(C2CCN(C(=O)CNc3ccc(Cl)c(Cl)c3)CC2)cc1O` the IC50 (Egl nine homolog 1) was 19.6 nM and the Activity (Mus musculus) was “Active”.
With `O=C(O)CNC(=O)c1ncc(C2CCN(C(=O)c3ccc(Cl)cc3)CC2)cc1O` the IC50 (Egl nine homolog 1) was 34.5 nM.
With `O=C(O)CNC(=O)c1ncc(C2CCN(C(=O)c3ccc(Cl)cc3Cl)CC2)cc1O` the IC50 (Egl nine homolog 1) was 144 nM.
Work on `O=C(O)CNC(=O)c1ncc(C2CCN(C(=O)CNc3ccc(Cl)cc3Cl)CC2)cc1O` yielded an IC50 (Egl nine homolog 1) of 32.5 nM.
Molecule `O=C(O)CNC(=O)c1ncc(C2CCN(C(=O)c3cccs3)CC2)cc1O` has an IC50 (Egl nine homolog 1) of 57.6 nM.
For `O=C(O)CNC(=O)c1ncc(C2CCN(C(=O)CNc3ccc(OC(F)(F)F)cc3)CC2)cc1O`, the IC50 (Egl nine homolog 1) was 39.9 nM.
With `O=C(O)CNC(=O)c1ncc(C2CCN(C(=O)c3ccccc3F)CC2)cc1O` the IC50 (Egl nine homolog 1) was 92.7 nM.
In the case of `O=C(O)CNC(=O)c1ncc(C2CCN(C(=O)c3ccccc3)CC2)cc1O`, the IC50 (Egl nine homolog 1) is reported as 69.7 nM.
In the case of `O=C(O)CNC(=O)c1ncc(-c2cn(CCCc3ccc(Cl)cc3)nn2)cc1O`, the IC50 (Egl nine homolog 1) is reported as 22.7 nM.
For `O=C(O)CNC(=O)c1ncc(C2CCN(S(=O)(=O)Cc3ccc(C(F)(F)F)cc3)CC2)cc1O`, the IC50 (Egl nine homolog 1) was 98.9 nM and the microsomal CLint at 1 µM [1] was 5 µL/min/mg.

Source: ChEMBL document CHEMBL5331121, “Preferred Conformation-Guided Discovery of Potent and Orally Active HIF Prolyl Hydroxylase 2 Inhibitors for the Treatment of Anemia” (J Med Chem, 2023)
